According to US10590078B2, “Sodium channel blockers” (Daewoong Pharmaceutical Co., Ltd., priority 2015, dated 2020):

Target: human sodium ion channel 1.7 (hNav1.7) (Homo sapiens, UniProt Q15858)
Test: Blocking effect against sodium ion channel Nav1.7, IonFlux16 auto patch clamp in hNav1.7 HEK293 cells
Assay type: cell-based
Conditions: hNav1.7 HEK293 cells; inhibition of peak current after 50 seconds treatment; eight concentrations; read-out: IC50

Chain of human sodium ion channel 1.7 (hNav1.7) (Q15858 whole entry): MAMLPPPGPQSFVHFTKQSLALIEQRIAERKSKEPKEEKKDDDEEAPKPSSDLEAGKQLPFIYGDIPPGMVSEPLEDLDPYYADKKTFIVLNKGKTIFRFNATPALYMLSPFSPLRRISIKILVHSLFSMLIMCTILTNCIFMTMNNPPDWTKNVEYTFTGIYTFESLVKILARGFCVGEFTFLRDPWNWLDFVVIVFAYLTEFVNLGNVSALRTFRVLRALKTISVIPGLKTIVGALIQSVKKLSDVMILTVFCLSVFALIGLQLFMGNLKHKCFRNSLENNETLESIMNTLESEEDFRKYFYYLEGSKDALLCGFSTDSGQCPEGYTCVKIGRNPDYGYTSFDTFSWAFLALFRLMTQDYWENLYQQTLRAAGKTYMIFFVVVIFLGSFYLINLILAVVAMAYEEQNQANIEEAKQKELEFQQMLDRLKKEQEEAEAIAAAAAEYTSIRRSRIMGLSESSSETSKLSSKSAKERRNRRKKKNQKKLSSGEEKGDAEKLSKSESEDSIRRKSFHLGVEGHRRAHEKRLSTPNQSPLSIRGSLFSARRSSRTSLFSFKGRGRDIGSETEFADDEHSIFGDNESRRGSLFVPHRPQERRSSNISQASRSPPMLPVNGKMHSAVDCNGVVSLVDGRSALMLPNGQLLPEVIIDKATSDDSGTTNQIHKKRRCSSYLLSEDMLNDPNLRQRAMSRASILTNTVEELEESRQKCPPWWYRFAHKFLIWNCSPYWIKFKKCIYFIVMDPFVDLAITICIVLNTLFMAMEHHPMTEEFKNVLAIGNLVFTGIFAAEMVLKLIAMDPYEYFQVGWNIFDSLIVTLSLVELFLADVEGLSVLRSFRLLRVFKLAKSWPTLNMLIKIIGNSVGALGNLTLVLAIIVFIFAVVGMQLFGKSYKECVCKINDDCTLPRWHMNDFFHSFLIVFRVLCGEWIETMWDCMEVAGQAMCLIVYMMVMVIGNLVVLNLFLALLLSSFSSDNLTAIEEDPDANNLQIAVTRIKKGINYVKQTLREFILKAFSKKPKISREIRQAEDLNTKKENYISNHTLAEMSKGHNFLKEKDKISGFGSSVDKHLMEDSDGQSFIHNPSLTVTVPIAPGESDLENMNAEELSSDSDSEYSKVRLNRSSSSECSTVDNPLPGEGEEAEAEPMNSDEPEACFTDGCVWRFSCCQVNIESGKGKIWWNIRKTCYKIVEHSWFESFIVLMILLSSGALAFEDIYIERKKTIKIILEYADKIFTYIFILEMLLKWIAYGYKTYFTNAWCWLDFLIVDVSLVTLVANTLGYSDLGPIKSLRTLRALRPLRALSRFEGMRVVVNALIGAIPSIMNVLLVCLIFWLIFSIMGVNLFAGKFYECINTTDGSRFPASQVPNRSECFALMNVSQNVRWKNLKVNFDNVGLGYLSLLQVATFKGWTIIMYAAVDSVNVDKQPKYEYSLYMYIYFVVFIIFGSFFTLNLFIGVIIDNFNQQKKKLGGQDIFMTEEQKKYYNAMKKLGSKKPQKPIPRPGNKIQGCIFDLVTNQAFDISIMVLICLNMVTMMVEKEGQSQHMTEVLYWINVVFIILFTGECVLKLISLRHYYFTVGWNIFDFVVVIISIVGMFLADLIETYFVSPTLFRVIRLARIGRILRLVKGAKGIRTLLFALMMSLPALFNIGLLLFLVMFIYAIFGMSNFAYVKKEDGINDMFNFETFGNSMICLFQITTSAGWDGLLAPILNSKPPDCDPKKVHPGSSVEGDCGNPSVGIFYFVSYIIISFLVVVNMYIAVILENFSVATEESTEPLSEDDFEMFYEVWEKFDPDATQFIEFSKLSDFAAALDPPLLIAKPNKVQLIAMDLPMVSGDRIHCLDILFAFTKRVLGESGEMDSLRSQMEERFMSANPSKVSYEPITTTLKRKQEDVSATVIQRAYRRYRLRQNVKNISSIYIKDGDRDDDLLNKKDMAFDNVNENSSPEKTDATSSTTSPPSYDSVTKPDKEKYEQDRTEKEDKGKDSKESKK

Compound | IC50 [nM]
CS(=O)(=O)NC(=O)c1cc(Cl)c(-n2nc(Cl)c3cc(-c4cccc(C(F)(F)F)c4)ccc32)cc1F [Example 249, 5-chloro-4-(3-chloro-5-(3-(trifluoromethyl)phenyl)-1H-indazol-1-yl)-2-fluoro-N-(methylsulfonyl)benzamide] | 74
CS(=O)(=O)NC(=O)c1cc(Cl)c(-n2nc(Cl)c3cc(-c4ccccc4C(F)(F)F)ccc32)cc1F [Example 250, 5-chloro-4-(3-chloro-5-(2-(trifluoromethyl)phenyl)-1H-indazol-1-yl)-2-fluoro-N-(methylsulfonyl)benzamide] | 67
CS(=O)(=O)NC(=O)c1cc(Cl)c(-n2nc(Cl)c3cc(-c4ccc(C(F)(F)F)cc4)ccc32)cc1F [Example 251, 5-chloro-4-(3-chloro-5-(4-(trifluoromethyl)phenyl)-1H-indazol-1-yl)-2-fluoro-N-(methylsulfonyl)benzamide] | 113
CS(=O)(=O)NC(=O)c1cc(Cl)c(-n2nc(Cl)c3cc(-c4ccccc4Cl)ccc32)cc1F [Example 252, 5-chloro-4-(3-chloro-5-(2-chlorophenyl)-1H-indazol-1-yl)-2-fluoro-N-(methylsulfonyl)benzamide] | 240
Cc1cc(Cl)ccc1-c1ccc2c(c1)c(Cl)nn2-c1cc(F)c(C(=O)NS(C)(=O)=O)cc1Cl [Example 253, 5-chloro-4-(3-chloro-5-(4-chloro-2-methylphenyl)-1H-indazol-1-yl)-2-fluoro-N-(methylsulfonyl)benzamide] | 480
CS(=O)(=O)NC(=O)c1cc(Cl)c(-n2nc(Cl)c3cc(-c4cc(Cl)ccc4F)ccc32)cc1F [Example 254, 5-chloro-4-(3-chloro-5-(5-chloro-2-fluorophenyl)-1H-indazol-1-yl)-2-fluoro-N-(methylsulfonyl)benzamide] | 420
CS(=O)(=O)NC(=O)c1cc(Cl)c(-n2nc(Cl)c3cc(-c4ccc(Cl)cc4)ccc32)cc1F [Example 255, 5-chloro-4-(3-chloro-5-(4-chlorophenyl)-1H-indazol-1-yl)-2-fluoro-N-(methylsulfonyl)benzamide] | 830
Cn1nccc1-c1ccc2c(c1)c(Cl)nn2-c1cc(F)c(C(=O)NS(C)(=O)=O)cc1Cl [Example 256, 5-chloro-4-(3-chloro-5-(1-methyl-1H-pyrazol-5-yl)-1H-indazol-1-yl)-2-fluoro-N-(methylsulfonyl)benzamide] | 3990
CS(=O)(=O)NC(=O)c1cc(Cl)c(-n2cc(Cl)c3cc(-c4ccc(F)cc4)cnc32)cc1F [Example 257, 5-chloro-4-(3-chloro-5-(4-fluorophenyl)-1H-pyrrolo[2,3-b]pyridin-1-yl)-2-fluoro-N-(methylsulfonyl)benzamide] | 360
COc1ccc(-c2cnc3c(c2)c(Cl)cn3-c2cc(F)c(C(=O)NS(C)(=O)=O)cc2Cl)cc1 [Example 260, 5-chloro-4-(3-chloro-5-(4-methoxyphenyl)-1H-pyrrolo[2,3-b]pyridin-1-yl)-2-fluoro-N-(methylsulfonyl)benzamide] | 470
CS(=O)(=O)NC(=O)c1cc(Cl)c(-n2cc(Cl)c3cc(-c4ccc(C(F)(F)F)cc4)cnc32)cc1F [Example 261, 5-chloro-4-(3-chloro-5-(4-(trifluoromethyl)phenyl)-1H-pyrrolo[2,3-b]pyridin-1-yl)-2-fluoro-N-(methylsulfonyl)benzamide] | 180
CS(=O)(=O)NC(=O)c1cc(Cl)c(-n2cc(Cl)c3cc(-c4cccc(F)c4)cnc32)cc1F [Example 262, 5-chloro-4-(3-chloro-5-(3-fluorophenyl)-1H-pyrrolo[2,3-b]pyridin-1-yl)-2-fluoro-N-(methylsulfonyl)benzamide] | 210
CS(=O)(=O)NC(=O)c1cc(Cl)c(-n2nc(Cl)c3ccc(-c4ccccc4)cc32)cc1F [Example 263, 5-chloro-4-(3-chloro-6-phenyl-1H-indazol-1-yl)-2-fluoro-N-(methylsulfonyl)benzamide] | > 10000
CS(=O)(=O)NC(=O)c1cc(Cl)c(-n2nc(-c3ccccc3)c3cc(-c4ccccc4)ccc32)cc1F [Example 264, 5-chloro-4-(3,5-diphenyl-1H-indazol-1-yl)-2-fluoro-N-(methylsulfonyl)benzamide] | 164
CS(=O)(=O)NC(=O)c1cc(Cl)c(-n2cc(C(=O)O)c3cc(Cl)ccc32)cc1F [Example 265, 5-chloro-1-(2-chloro-5-fluoro-4-((methylsulfonyl)carbamoyl)phenyl)-1H-indole-3-carboxylic acid] | 300 to 1000
CS(=O)(=O)NC(=O)c1cc(Cl)c(-n2cc(Cl)c3cc(Cl)ccc32)cc1F [Example 266, 5-chloro-4-(3,5-dichloro-1H-indol-1-yl)-2-fluoro-N-(methylsulfonyl)benzamide] | 133
CS(=O)(=O)NC(=O)c1cc(Cl)c(-n2cc(Cl)c3c(Cl)c(O)ccc32)cc1F [Example 267, 5-chloro-4-(3,4-dichloro-5-hydroxy-1H-indol-1-yl)-2-fluoro-N-(methylsulfonyl)benzamide] | > 10000
COc1ccc2c(c1)c(Cl)cn2-c1cc(F)c(C(=O)NS(C)(=O)=O)cc1Cl [Example 268, 5-chloro-4-(3-chloro-5-methoxy-1H-indol-1-yl)-2-fluoro-N-(methylsulfonyl)benzamide] | 608
CS(=O)(=O)NC(=O)c1cc(Cl)c(-n2cc(Cl)c3cc(OCc4ccccc4)ccc32)cc1F [Example 269, 4-(5-(benzyloxy)-3-chloro-1H-indol-1-yl)-5-chloro-2-fluoro-N-(methylsulfonyl)benzamide] | 142
CS(=O)(=O)NC(=O)c1cc(Cl)c(-n2cc(Cl)c3c(OCc4ccccc4)cccc32)cc1F [Example 270, 4-(4-(benzyloxy)-3-chloro-1H-indol-1-yl)-5-chloro-2-fluoro-N-(methylsulfonyl)benzamide] | 187
CS(=O)(=O)NC(=O)c1cc(Cl)c(-n2cc(Cl)c3ccc(OCc4ccccc4)cc32)cc1F [Example 271, 4-(6-(benzyloxy)-3-chloro-1H-indol-1-yl)-5-chloro-2-fluoro-N-(methylsulfonyl)benzamide] | 2130
CS(=O)(=O)NC(=O)c1cc(Cl)c(-n2cc(-c3ccc(Cl)cc3)c3cc(Cl)ccc32)cc1F [Example 272, 5-chloro-4-(5-chloro-3-(4-chlorophenyl)-1H-indol-1-yl)-2-fluoro-N-(methylsulfonyl)benzamide] | 370
CS(=O)(=O)NC(=O)c1cc(Cl)c(-n2cc(-c3ccc(Cl)nc3)c3cc(Cl)ccc32)cc1F [Example 273, 5-chloro-4-(5-chloro-3-(6-chloropyridin-3-yl)-1H-indol-1-yl)-2-fluoro-N-(methylsulfonyl)benzamide] | 180
CS(=O)(=O)NC(=O)c1ccc(-n2cc(-c3ccc(Cl)cc3)c3cc(Cl)ccc32)nc1 [Example 274, 6-(5-chloro-3-(4-chlorophenyl)-1H-indol-1-yl)-N-(methylsulfonyl)nicotinamide] | 5960
CS(=O)(=O)NC(=O)c1ccc(-n2cc(-c3ccc(F)cc3)c3cc(Cl)ccc32)nc1 [Example 275, 6-(5-chloro-3-(4-fluorophenyl)-1H-indol-1-yl)-N-(methylsulfonyl)nicotinamide] | 1230
O=S(=O)(Nc1cscn1)c1cc(Cl)c(-n2nc(Cl)c3cc(-c4ccccc4)ccc32)cc1F [Example 276, 5-chloro-4-(3-chloro-5-phenyl-1H-indazol-1-yl)-2-fluoro-N-(thiazol-4-yl)benzenesulfonamide] | > 10000
